# Assay: LC/MRM-MS quantification of THC in oral fluid with heavy isotope standard curve
# Format: in vivo
# Settings: oral fluid of cannabis smoking volunteer, ratio to heavy THC isotope
# From the text: Samples containing drugs of interest are processed and run on the Thermo Quantum Triple Quad MS (LC/MRM MS) in triplicate. Reference Stable heavy isotope analogs are spiked into known drug free OF to determine the sensitivity limit of detection. A standard curve is generated by mixing a known amount of reference heavy isotope analogs with varying amounts of the natural drug, plotting the ratio of the concentration of natural drug to that of the heavy standard isotope analog. The reference heavy isotope analogs are spiked into suspected positive OF sample. The ratio of […] is calculated and fitted to the standard curve to calculate the natural drugs concentration.
# The present disclosure provides an exemplary oral fluid sample processing protocol. […]
structure (smiles),measurement,value
"CCCCCc1cc(O)c2c(c1)OC(C)(C)[C@@H]1CCC(C)=C[C@@H]21 [THC, (6aR,10aR)-6,6,9-trimethyl-3-pentyl-6a, 7,8,10a-tetrahydro-6H-benzo[c]chromen-1-ol]",concentration of THC in saliva,8.615 ng/mL
